Source: patent publication US10195147B1, “Dry powder compositions with magnesium stearate” (OTITOPIC INC., priority 2017, dated 2019)
Values joined by “and” are separate entries in the source; they are usually repeats but may differ in a detail not shown here. Identical values can stand only once.

Assays:
Format in all cases: physicochemical
[1] = Particle size distribution by Spraytec using low resistance device; conditions: 90 L/min, 2.7 second actuation, 5 tests
Method: Particle size distribution of ASA/MgST dry powder composition with 0.5%, 1%, 5%, and 10% w/w MgST, spray-dried Aspirin 85%/Leucine 15% Formulation (036 or 36)>Aspirin 95%/Leucine 5% Formulation (046 or 46), and micronized ASA were measured by Spraytec using low resistance device, at 90 L/min flow rate with 2.7 second actuation time with a step of device/mouthpiece/USP/throat/IC/DUSA, and 5 tests for each composition (Table 5E).

[2] = NGI data of the NGI v. Spraytec comparison; conditions: Table 5F
[3] = Colloid-probe atomic force microscopy, force of cohesion; conditions: five drug probes per formulation against smooth crystalline aspirin surface
Excerpt: Colloid-probe atomic force microscopy studies (AFM) was used to measure the cohesive surface interfacial forces (FIG. 6). Five individual particles from each of powder formulation was attached to tipless cantilevers. These were designated as drug probes, which were then interacted with a smooth surface of crystalline aspirin. In this way, it was possible to measure the force of cohesion of the particles of the different formulations (FIG. 6), which followed the following rank order: […]

- % V < 5 μm [1]: 54.7 (3.15) %
- % V < 10 μm [1]: 88.99 (2.05) %
- Dv(10) [1]: 1.9 (0.08) μm
- Dv(50) [1]: 4.63 (0.24) μm and 4.62 (0.24) μm
- Dv(90) [1]: 10.32 (0.65) μm
- NGI FPF [2]: 20.71%
- NGI MMAD [2]: 4.86 μm
SMILES: CC(=O)Oc1ccccc1C(=O)O [Micronized ASA, acetylsalicylic acid]
- force of cohesion, rank order [3]: >ASA co-micronised with 0.5% magnesium stearate
